Reference: US12103952B2, “Methods for expressing proteins in axons” (Cornell University, priority 2010, dated 2024)
Non-standard residues stand in square brackets, D forms with d. Residues, ends and D or L forms follow the SMILES beside them. Nle = CCCC[C@H](N)C(=O)O

Tests used:
Type in all cases: cell-based, rat
[1] = test system: CREB reporter mRNA translation in DRG axons; assay: myr-dEGFP3′CREB Sindbis translation reporter in axons; conditions: 40 μM LLnL, within 5 min, myr-dEGFP3′CREB-infected axons
Source text: FIGS. 5A-C are results showing NGF-dependent translation of a CREB reporter mRNA in axons. (A) Schematic diagram of the Sindbis viral reporter construct used to monitor CREB translation. The reporter contains a myristoylated, destabilized EGFP (myr-dEGFP) with the 3′UTR of CREB, expressed under control of the Sindbis subgenomic promoter (PSG). (B) E15 DRG explant cultures were infected with Sindbis constructs expressing myr-dEGFP3′CREB on DIV3 and fluorescence (bottom panel) and phase (top panel) images, approximately 1000 μm from the cell body were collected after 24 hours. Fluorescence images are shown in inverted contrast in order to more readily visualize puncta. Scale bar, 25 μm. […] EGFP fluorescence co-localizes with a population of S6-labeled ribosomal clusters. […]
FIGS. 6A-H are data showing that axonal CREB is specifically translated in response to NGF. […] (B) E15 DRG explant cultures were infected with Sindbis constructs expressing myr-dEGFP3′RhoA or myr-dEGFP3′H1f0 on DIV3 and fluorescence images were collected after 24 h. […] (D) Axons from DIV3 DRGs were analyzed for CREB and mitochondrial localizations by immunofluorescence using CREB-specific and VDAC/porin1-specific antibodies. […] CREB mRNA was detected by FISH using a CREB specific riboprobe. […] (H) Axons of DIV3 DRG explant cultures were analyzed by immunofluorescence for NGF effectors CREB, pTrkA and pErk5 at 3 DIV. […]

CREB = CREB levels in severed axons by immunofluorescence; conditions: severed axons, inhibitor present during NGF removal
Method: FIGS. 7A-B are results showing the axonal translation and retrograde transport of endogenous CREB. (A) CREB levels in severed axons of E15 DRGs were assayed by immunofluorescence with a CREB-specific antibody. CREB was depleted on removal of NGF, with near complete loss of fluorescence signals by 3 hours. […] The error bars represent s.e.m. (n=40). (B) CREB is depleted from axon terminals in a microtubule-dependent manner. CREB levels in severed axons were monitored, as in A, after removal and restoration of NGF, in the presence of LLnL or colchicine. Colchicine, but not LLnL, blocked the reduction in CREB levels following removal of NGF. The error bars represent s.e.m. (n=40).
E15 rat or E13 mouse embryonic dorsal root ganglion (DRG) explants were plated on glass-bottom culture dishes (MatTek) or glass coverslips pre-coated with 33 μg/ml poly-D-lysine and 1 μg/ml laminin. CREB^α/Δ−/+ animals used to generate CREB^α/Δ−/− embryos were from Jackson Labs. E15 dissociated DRG neurons were prepared as described by Wu et al., Nature 436, 1020-1024 (2005). DRGs were cultured in B27/Neurobasal medium (Invitrogen) supplemented with 100 ng/ml nerve growth factor (NGF) and […] 5′-fluorodeoxyuridine (5-FdU) for 3 days. siRNA-mediated knockdown in DRG neurons has been described previously by Higuchi et al., Biochemical & Biophysical Research Communications 301, 804-809 (2003) and was performed using siRNAs listed in Table S3. For measurements of CREB levels in isolated axons, axons were severed from cell bodies by removing the explant with a flame-sharpened Pasteur pipette (Wu et al., Nature 436, 1020-1024 (2005)). Modified Boyden chambers were based on the procedure of Twiss (Zheng et al., Journal of Neuroscience 21, 9291-9303 (2001)) and modified to obtain distal axons as described by Wu et al., Nature 436, 1020-1024 (2005). mRNA from harvested axons (Wu et al., Nature 436, 1020-1024 (2005)) was used to prepare a cDNA library using a modified, unbiased single cell protocol as described below. See also Tietjen et al., Neuron 38, 161-175 (2003). Compartmented (Campenot) cultures were prepared as described below. See also Campenot, Proc Natl Acad Sci USA 74, 4516-4519 (1977)).
Images and measurements of signals in axons were taken from the terminal 50 μm of the axon, except where indicated. Analyzed axons were a minimum of 2000 μm for all experiments. DRGs were fixed with 4% PFA in CBS overnight at 4° C., permeabilized with 0.5% Triton X-100/TBS, and blocked in 4% BSA/TBS for 1 hour. DRGs were labeled with antibodies (Table S4) in 2% BSA/0.1% Triton X-100/TBS overnight at 4° C. For image acquisition details, see below.
The axonal localization of CREB was also examined by immunofluorescence. Axons were severed from cultured DRG explants to rule out potential contributions from anterograde transport of cell body-derived CREB. […] Although the majority of CREB protein localized to the nucleus, with substantially lower levels in axons (FIG. 4D), the immunofluorescence signal in axons was specific. Similar immunofluorescence staining was seen using a different CREB-specific antibody that recognized a non-overlapping epitope.
The importin proteins, which bind nuclear-localization sequences (NLS) (Goldfarb et al., Trends in Cell Biology 14, 505-514 (2004)), are present in axons and mediate the retrograde trafficking of axonally-injected fluorescently-labeled NLS peptides (Hanz et al., Neuron 40, 1095-1104 (2003)). Since CREB contains a NLS that mediates its nuclear localization (Waeber & Habener, Mol Endocrinol 5, 1418-1430 (1991)), axonal CREB may be retrogradely transported to the cell body. To determine if endogenously-expressed CREB is retrogradely trafficked, we examined the time course of CREB reduction in axons upon replacement of media with NGF-free media. […]

E15 DRG explant cultures = assay: Retrograde transport of photoactivatable Dendra-CREB reporter; conditions: in presence of inhibitor
Method: FIGS. 8A-D are results showing the retrograde transport of a photoactivatable fluorescent CREB reporter protein. (A) E15 DRG explant cultures were infected with Sindbis constructs expressing Dendra or Dendra-CREB transcripts. Dendra and Dendra-CREB were visualized as green fluorescence (top panel), and growth cone-localized Dendra[-CREB] was photoactivated to its red form by 50 ms illumination of the boxed regions with a 408 nm laser. Movement of photoactivated Dendra signals was analyzed within the axon determined by green Dendra fluorescence mask. […] Photoactivated Dendra[-CREB] images are shown inverted in order to more readily visualize signals. Scale bar, 10 μm. (B) Quantification of data in (A). […] The expected diffusion rate of Dendra-CREB was calculated at various elapsed time points, using a previously measured diffusion coefficient (D) in neurons (Bloodgood & Sabatini, Science 310, 866-869 (2005)), in the formula x^2=(2Dt), where x is the average displacement. […] (C) Dendra or Dendra-CREB was photoactivated by 1 s illumination of a 40 μm axon segment approximately 1 mm from its respective cell body and levels of photoactivated Dendra fluorescence were analyzed in the respective cell nucleus. […] (D) Quantification of data in (C). n=10 cells per data point. *p=0.0012. […]

SMILES	eGFP fluorescence signal [1]	reduction of CREB levels upon removal of NGF (CREB)	retrograde transport of Dendra-CREB (E15 DRG explant cultures)
CCCC[C@@H](C=O)NC(=O)[C@H](CC(C)C)NC(=O)[C@H](CC(C)C)NC(C)=O [LLnL] (Ac-Leu-Leu-[Nle]-aldehyde)	increased twofold	unaffected	
COc1cc2c(c(OC)c1OC)-c1ccc(OC)c(=O)cc1[C@@H](NC(C)=O)CC2 [colchicine]		abolished the reduction in CREB levels	significantly blocked
C=C(CC)C(=O)c1ccc(OCC(=O)O)c(Cl)c1Cl [ethacrynic acid]			significantly blocked
